{"source": "patent US20210300936A1", "about": "“PYRAZOLOTRIAZOLOPYRIMIDINE DERIVATIVES AS A2A RECEPTOR ANTAGONIST” (BEIGENE, LTD., priority 2018, published 2021)"}
{"target": "human A2A receptor (A2AR) (Homo sapiens, UniProt P29274)", "sequence (P29274 whole entry)": "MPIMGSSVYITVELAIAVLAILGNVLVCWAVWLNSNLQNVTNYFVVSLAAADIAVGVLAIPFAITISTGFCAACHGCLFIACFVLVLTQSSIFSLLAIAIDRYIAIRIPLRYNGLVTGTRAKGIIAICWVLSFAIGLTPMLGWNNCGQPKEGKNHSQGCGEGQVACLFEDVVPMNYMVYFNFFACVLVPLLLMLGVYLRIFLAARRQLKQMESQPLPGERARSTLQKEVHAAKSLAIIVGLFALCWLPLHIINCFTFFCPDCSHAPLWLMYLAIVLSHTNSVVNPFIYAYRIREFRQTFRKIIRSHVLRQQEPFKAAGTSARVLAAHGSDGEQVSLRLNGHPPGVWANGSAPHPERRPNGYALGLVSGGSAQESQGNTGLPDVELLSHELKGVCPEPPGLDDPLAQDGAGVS", "test": "Luciferase reporter assay (HEK293-A2AR-luc2p/CRE/Hygro cells, 3 nM CGS21680)", "type": "cell-based", "details": "3 nM CGS21680, 5 h incubation", "procedure,_shortened": "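HEK293 cells stably expressing A2AR with a CRE-luc2P reporter were seeded in 1% FBS with 1 U/mL adenosine deaminase. After 18 h, cells got 3 nM CGS21680 plus antagonist at 0.1–10000 nM for 5 h, followed by a luciferase readout. IC50 is relative to the 3 nM CGS21680 signal, set as 100%.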", "units": {"IC50": "nM"}}
{"smiles": "CC(C(=O)N1CCN(c2ccc(F)cc2)CC1)(c1ccccc1)n1ncc2c1nc(N)n1nc(-c3ccco3)nc21", "note": "(stereo not drawn) [Compound A70, 2-(5-amino-2-(furan-2-yl)-7H-pyrazolo[4,3-e][1,2,4]triazolo[1,5-c]pyrimidin-7-yl)-1-(4-(4-fluorophenyl)piperazin-1-yl)-2-phenylpropan-1-one]", "IC50": 5}
{"smiles": "C[C@@](C(=O)N1CCN(c2ccc(F)cc2)CC1)(c1ccccc1)n1ncc2c1nc(N)n1nc(-c3ccco3)nc21", "note": "[Compound A70a, (S)-2-(5-amino-2-(furan-2-yl)-7H-pyrazolo[4,3-e][1,2,4]triazolo[1,5-c]pyrimidin-7-yl)-1-(4-(4-fluorophenyl)piperazin-1-yl)-2-phenylpropan-1-one]", "IC50": 10.1}
{"smiles": "C[C@](C(=O)N1CCN(c2ccc(F)cc2)CC1)(c1ccccc1)n1ncc2c1nc(N)n1nc(-c3ccco3)nc21", "note": "[Compound A70b, (R)-2-(5-amino-2-(furan-2-yl)-7H-pyrazolo[4,3-e][1,2,4]triazolo[1,5-c]pyrimidin-7-yl)-1-(4-(4-fluorophenyl)piperazin-1-yl)-2-phenylpropan-1-one]", "IC50": 3.4}
{"smiles": "CN(C)CCOc1ccc(N2CCN(C(=O)C(C)(c3ccccc3)n3ncc4c3nc(N)n3nc(-c5ccco5)nc43)CC2)cc1", "note": "(stereo not drawn) [Compound A71, 2-(5-amino-2-(furan-2-yl)-7H-pyrazolo[4,3-e][1,2,4]triazolo[1,5-c]pyrimidin-7-yl)-1-(4-(4-(2-(dimethylamino)ethoxy)phenyl)piperazin-1-yl)-2-phenylpropan-1-one]", "IC50": 7.5}
{"smiles": "COCCOc1ccc(N2CCN(C(=O)C(C)(c3ccccc3)n3ncc4c3nc(N)n3nc(-c5ccco5)nc43)[C@@H](C)C2)cc1", "note": "(stereo partly drawn) [Compound A72, 2-(5-amino-2-(furan-2-yl)-7H-pyrazolo[4,3-e][1,2,4]triazolo[1,5-c]pyrimidin-7-yl)-1-((S)-4-(4-(2-methoxyethoxy)phenyl)-2-methylpiperazin-1-yl)-2-phenylpropan-1-one]", "IC50": 103}
{"smiles": "COCCOc1ccc(N2CCN(C(=O)C(C)(c3ccccc3)n3ncc4c3nc(N)n3nc(-c5ccco5)nc43)C[C@H]2C)cc1", "note": "(stereo partly drawn) [Compound A73, 2-(5-amino-2-(furan-2-yl)-7H-pyrazolo[4,3-e][1,2,4]triazolo[1,5-c]pyrimidin-7-yl)-1-((R)-4-(4-(2-methoxyethoxy)phenyl)-3-methylpiperazin-1-yl)-2-phenylpropan-1-one]", "IC50": 15.6}
{"smiles": "COCCOc1ccc(N2CCN(C(=O)C(C)(c3ccccc3)n3ncc4c3nc(N)n3nc(-c5ccco5)nc43)C[C@@H]2C)cc1", "note": "(stereo partly drawn) [Compound A74, 2-(5-amino-2-(furan-2-yl)-7H-pyrazolo[4,3-e][1,2,4]triazolo[1,5-c]pyrimidin-7-yl)-1-((S)-4-(4-(2-methoxyethoxy)phenyl)-3-methylpiperazin-1-yl)-2-phenylpropan-1-one]", "IC50": 5.1}
{"smiles": "COCCOc1ccc(N2CCN(C(=O)C(C)(c3cccc(C)c3)n3ncc4c3nc(N)n3nc(-c5ccco5)nc43)CC2)cc1", "note": "(stereo not drawn) [Compound A75, 2-(5-amino-2-(furan-2-yl)-7H-pyrazolo[4,3-e][1,2,4]triazolo[1,5-c]pyrimidin-7-yl)-1-(4-(4-(2-methoxyethoxy)phenyl)piperazin-1-yl)-2-(m-tolyl)propan-1-one]", "IC50": 6.4}
{"smiles": "CC(C(=O)N1CCN(c2ccc(OCCCN3CCOCC3)cc2)CC1)(c1ccccc1)n1ncc2c1nc(N)n1nc(-c3ccco3)nc21", "note": "(stereo not drawn) [Compound A76, 2-(5-amino-2-(furan-2-yl)-7H-pyrazolo[4,3-e][1,2,4]triazolo[1,5-c]pyrimidin-7-yl)-1-(4-(4-(3-morpholinopropoxy)phenyl)piperazin-1-yl)-2-phenylpropan-1-one]", "IC50": 7.3}
{"smiles": "C[C@@](C(=O)N1CCN(c2ccc(OCCCN3CCOCC3)cc2)CC1)(c1ccccc1)n1ncc2c1nc(N)n1nc(-c3ccco3)nc21", "note": "[Compound A76a, (S)-2-(5-amino-2-(furan-2-yl)-7H-pyrazolo[4,3-e][1,2,4]triazolo[1,5-c]pyrimidin-7-yl)-1-(4-(4-(3-morpholinopropoxy)phenyl)piperazin-1-yl)-2-phenylpropan-1-one]", "IC50": 19.1}
{"smiles": "C[C@](C(=O)N1CCN(c2ccc(OCCCN3CCOCC3)cc2)CC1)(c1ccccc1)n1ncc2c1nc(N)n1nc(-c3ccco3)nc21", "note": "[Compound A76b, (R)-2-(5-amino-2-(furan-2-yl)-7H-pyrazolo[4,3-e][1,2,4]triazolo[1,5-c]pyrimidin-7-yl)-1-(4-(4-(3-morpholinopropoxy)phenyl)piperazin-1-yl)-2-phenylpropan-1-one]", "IC50": 3.9}
{"smiles": "COc1cccc(N2CCN(C(=O)C(C)(c3ccccc3)n3ncc4c3nc(N)n3nc(-c5ccco5)nc43)CC2)c1", "note": "(stereo not drawn) [Compound A77, 2-(5-amino-2-(furan-2-yl)-7H-pyrazolo[4,3-e][1,2,4]triazolo[1,5-c]pyrimidin-7-yl)-1-(4-(3-methoxyphenyl)piperazin-1-yl)-2-phenylpropan-1-one]", "IC50": 4.2}
{"smiles": "COc1ccccc1N1CCN(C(=O)C(C)(c2ccccc2)n2ncc3c2nc(N)n2nc(-c4ccco4)nc32)CC1", "note": "(stereo not drawn) [Compound A78, 2-(5-amino-2-(furan-2-yl)-7H-pyrazolo[4,3-e][1,2,4]triazolo[1,5-c]pyrimidin-7-yl)-1-(4-(2-methoxyphenyl)piperazin-1-yl)-2-phenylpropan-1-one]", "IC50": 6.2}
{"smiles": "CC(C(=O)N1CCN(c2ccc(OCCCN3CCCC3)cc2)CC1)(c1ccccc1)n1ncc2c1nc(N)n1nc(-c3ccco3)nc21", "note": "(stereo not drawn) [Compound A79, 2-(5-amino-2-(furan-2-yl)-7H-pyrazolo[4,3-e][1,2,4]triazolo[1,5-c]pyrimidin-7-yl)-2-phenyl-1-(4-(4-(3-(pyrrolidin-1-yl)propoxy)phenyl)piperazin-1-yl)propan-1-one]", "IC50": 7.1}
{"smiles": "C[C@@](C(=O)N1CCN(c2ccc(OCCCN3CCCC3)cc2)CC1)(c1ccccc1)n1ncc2c1nc(N)n1nc(-c3ccco3)nc21", "note": "[Compound A79a, (S)-2-(5-amino-2-(furan-2-yl)-7H-pyrazolo[4,3-e][1,2,4]triazolo[1,5-c]pyrimidin-7-yl)-2-phenyl-1-(4-(4-(3-(pyrrolidin-1-yl)propoxy)phenyl)piperazin-1-yl)propan-1-one]", "IC50": 21.4}
{"smiles": "C[C@](C(=O)N1CCN(c2ccc(OCCCN3CCCC3)cc2)CC1)(c1ccccc1)n1ncc2c1nc(N)n1nc(-c3ccco3)nc21", "note": "[Compound A79b, (R)-2-(5-amino-2-(furan-2-yl)-7H-pyrazolo[4,3-e][1,2,4]triazolo[1,5-c]pyrimidin-7-yl)-2-phenyl-1-(4-(4-(3-(pyrrolidin-1-yl)propoxy)phenyl)piperazin-1-yl)propan-1-one]", "IC50": 6.8}
{"smiles": "CC(C(=O)N1CCN(c2ccc(OCCN3CCOCC3)cc2)CC1)(c1ccccc1)n1ncc2c1nc(N)n1nc(-c3ccco3)nc21", "note": "(stereo not drawn) [Compound A80, 2-(5-amino-2-(furan-2-yl)-7H-pyrazolo[4,3-e][1,2,4]triazolo[1,5-c]pyrimidin-7-yl)-1-(4-(4-(2-morpholinoethoxy)phenyl)piperazin-1-yl)-2-phenylpropan-1-one]", "IC50": 4.3}
{"smiles": "C[C@@](C(=O)N1CCN(c2ccc(OCCN3CCOCC3)cc2)CC1)(c1ccccc1)n1ncc2c1nc(N)n1nc(-c3ccco3)nc21", "note": "[Compound A80a, (S)-2-(5-amino-2-(furan-2-yl)-7H-pyrazolo[4,3-e][1,2,4]triazolo[1,5-c]pyrimidin-7-yl)-1-(4-(4-(2-morpholinoethoxy)phenyl)piperazin-1-yl)-2-phenylpropan-1-one]", "IC50": 7.4}
{"smiles": "C[C@](C(=O)N1CCN(c2ccc(OCCN3CCOCC3)cc2)CC1)(c1ccccc1)n1ncc2c1nc(N)n1nc(-c3ccco3)nc21", "note": "[Compound A80b, (R)-2-(5-amino-2-(furan-2-yl)-7H-pyrazolo[4,3-e][1,2,4]triazolo[1,5-c]pyrimidin-7-yl)-1-(4-(4-(2-morpholinoethoxy)phenyl)piperazin-1-yl)-2-phenylpropan-1-one]", "IC50": 2.8}
{"smiles": "CN1CCN(CCOc2ccc(N3CCN(C(=O)C(C)(c4ccccc4)n4ncc5c4nc(N)n4nc(-c6ccco6)nc54)CC3)cc2)CC1", "note": "(stereo not drawn) [Compound A81, 2-(5-amino-2-(furan-2-yl)-7H-pyrazolo[4,3-e][1,2,4]triazolo[1,5-c]pyrimidin-7-yl)-1-(4-(4-(2-(4-methylpiperazin-1-yl)ethoxy)phenyl)piperazin-1-yl)-2-phenylpropan-1-one]", "IC50": 4.7}
{"smiles": "CN1CCN(CCOc2ccc(N3CCN(C(=O)[C@](C)(c4ccccc4)n4ncc5c4nc(N)n4nc(-c6ccco6)nc54)CC3)cc2)CC1", "note": "[Compound A81a, (S)-2-(5-amino-2-(furan-2-yl)-7H-pyrazolo[4,3-e][1,2,4]triazolo[1,5-c]pyrimidin-7-yl)-1-(4-(4-(2-(4-methylpiperazin-1-yl)ethoxy)phenyl)piperazin-1-yl)-2-phenylpropan-1-one]", "IC50": 7.9}
{"smiles": "CN1CCN(CCOc2ccc(N3CCN(C(=O)[C@@](C)(c4ccccc4)n4ncc5c4nc(N)n4nc(-c6ccco6)nc54)CC3)cc2)CC1", "note": "[Compound A81b, (R)-2-(5-amino-2-(furan-2-yl)-7H-pyrazolo[4,3-e][1,2,4]triazolo[1,5-c]pyrimidin-7-yl)-1-(4-(4-(2-(4-methylpiperazin-1-yl)ethoxy)phenyl)piperazin-1-yl)-2-phenylpropan-1-one]", "IC50": 2.6}
{"smiles": "CN1CCN(CCCOc2ccc(N3CCN(C(=O)C(C)(c4ccccc4)n4ncc5c4nc(N)n4nc(-c6ccco6)nc54)CC3)cc2)CC1", "note": "(stereo not drawn) [Compound A82, 2-(5-amino-2-(furan-2-yl)-7H-pyrazolo[4,3-e][1,2,4]triazolo[1,5-c]pyrimidin-7-yl)-1-(4-(4-(3-(4-methylpiperazin-1-yl)propoxy)phenyl)piperazin-1-yl)-2-phenylpropan-1-one]", "IC50": 7.1}
{"smiles": "CN1CCN(CCCOc2ccc(N3CCN(C(=O)[C@](C)(c4ccccc4)n4ncc5c4nc(N)n4nc(-c6ccco6)nc54)CC3)cc2)CC1", "note": "[Compound A82a, (S)-2-(5-amino-2-(furan-2-yl)-7H-pyrazolo[4,3-e][1,2,4]triazolo[1,5-c]pyrimidin-7-yl)-1-(4-(4-(3-(4-methylpiperazin-1-yl)propoxy)phenyl)piperazin-1-yl)-2-phenylpropan-1-one]", "IC50": 12.2}
